Our source for the minimal effective dose values is patent publication EP0199238A1, “1,4-Dihydropyridine derivatives, process for their preparation and their use in medicaments” (BAYER AG, priority 1985, dated 1986).

The structures appear in SMILES notation.

This assay has as its system SH-Ratte. The experiment in a line: Blood pressure measurement in conscious rats (tail cuff, oral administration). It is filed as in vivo. The settings on record: Rattus norvegicus, oral by gavage, lowest dose that still gives at least 15 mm Hg fall in systolic blood pressure, read-out: Grenzdosis der antihypertensiven Wirkung. Here is the method: Blutdruckmessung bei wachen Ratten
Meßmethode: In Anlehnung an das von Breuninger beschriebene Verfahren wird der Blutdruck am Schwanz der nicht narkotisierten Ratte unblutig mittels aufblasbarer Gummimanschette und Infraton-Pulsabnehmer D nach Boucke-Brecht gemessen. Die Tiere befinden sich während des ganzen Versuches, einschlieBlich einer 2-stündigen Vorperiode, einzeln in einem Wassermantel umgeben, auf ca. 30°C temperierten Kunststoffröhren. Die aufblasbare Gummimanschette sitzt an der Schwanzwurzel, der Pulsabnehmer 2-5 cm distal davon. Zur Erzielung gleichmäßiger Meßresultate ist für die wiederholten Messungen die Meßstelle am Schwanz mit Tusche markiert.
Der gesamte Meßvorgang wird auf einem 2-Kanal-Direktschreiber oder einem Speicher-Oszillografen (Tektronix) registriert, im 1. Kanal die Pulsationen der Schwanzarterie, im 2. Kanal die Impulse eines Druckmarkengebers, der den jeweils in der Manschette herrschenden Druck anzeigt. Gemessen wird bei abfallendem Manschettendruck. Als Meßwert wird der in der Manschette herrschende Druck bei Wiederauftreten der Pulsationen benutzt. Er entspricht dem systolischen Blutdruck im Rattenschwanz. […]
Bei der quantitativen Bestimmung von Dosis-Wirkungskurven wird für jedes Tier die Wirkung als mittlere prozentuale Blutdrucksenkung gegenüber dem Ausgangsblutdruck, gemittelt über den Versuchszeitraum von 6 Stunden, angegeben. […]

`COC(=O)C1=C(C)NC(C)=C(C(=O)OCC(C)(C)O)C1c1ccccc1[N+](=O)[O-]` (stereo not shown) [Beispiel 3, 1,4-Dihydro-2,6-dimethyl-4-(2-nitrophenyl)-pyridin-3,5-dicarbonsäure-(2-hydroxy-2-methyl-propyl)-methyl-ester]: the minimal effective dose was found to be 1 mg/kg.
